In patent publication US20230097992A1, “BIVALENT EGF FUSION TOXINS” (The Regents of the University of Colorado, a body corporate, priority 2020, published 2023):

How the values were obtained:
[1] = system: 14 EGFR+ HNSCC cells lines; assay: Flow cytometry binding, all 14 EGFR+ HNSCC cell lines together; parameters: species or system human; conditions: mean over the 14 EGFR+ HNSCC cell lines
[2] = system: EGFR+ HNSCC cell line, Cal27; assay: Blocking of anti-human EGFR mAb binding to Cal27 by nonbiotinylated fusion toxin (flow cytometry); conditions: nonbiotinylated fusion toxin as competitor
From the text: FIGS. 3C-D present representative data from analysis of the blocking of anti-human EGFR mAb binding to human EGFR-expressing (EGFR^+) HNSCC Cal27 by mEGF-IT and bEGF-IT using flow cytometry. FIG. 3C presents representative flow cytometry data, and FIG. 3D presents the percentage inhibition of anti-human EGFR mAb binding to Cal27 cells plotted versus the concentration of binding competitor (mono-EGF-IT or bi-EGF-IT). The data are representative of three individual experiments.
The biotinylated EGF fusion toxins also dose-dependently bound to all other examined HNSCC cell lines (FIG. 3, 11, and Table 4). […] One limitation to the flow cytometry binding assay is that the extent of biotinylation should be similar between the constructs. Otherwise, it could be hard to attribute the differences in fluorescence intensities to a change in affinity. To overcome this limitation, a blocking assay using nonbiotinylated mono-EGF-IT or bi-EGF-IT to block the binding of the anti-human EGFR mAb to the EGFR+ HNSCC cell line, Cal27, was performed (Wang et al, 2007, Bioconjug Chem 18: 944-955). […] The 14 examined HNSCC cell lines represent the main HNSCC cell lines used in the research community of the head and neck cancers.

NSG mice = assay: In vivo off-target toxicity in NSG mice
From the text: FIGS. 12A-C presents representative images of necropsy results for NSG mice treated with mono-EGF-IT or bi-EGF-IT without tumor cell injection. Mice were euthanized on day 13 after the first injection of the fusion toxins. The images show representative gross changes observed in the ear (FIG. 12A), liver (FIG. 12C) and gastrointestinal tract of a representative NSG mouse treated with mono-EGF-IT compared to a representative NSG mouse treated with bi-EGF-IT.
Mono-EGF-IT (mEGF-IT), bEGF-IT, or DT390 was intraperitoneally injected (IP) starting at day 4 at 50 μg/kg, once daily for 10 consecutive days. […] The injected animals were observed daily for signs and symptoms of illness and scored at least twice weekly based on the parameters as previously reported (Peraino et al. (2013), J. Immunol. Methods 398-399, 33-43, which is hereby incorporated by reference in its entirety; Wang et al., 2015). The animals were humanely euthanized when the score exceeded the limit or the animal lost more than 15% of its pre-injection body weight. In addition, to assess whether the fusion toxins are toxic to the animals, NSG mice injected with the fusion toxins only were also included as control.
The main side effects of targeting EGFR are caused by off-target effects, because EGFR is expressed in many healthy tissues, include skin, liver, and gastrointestinal tract (Widakowich et al., (2007), Oncologist, 12, 1443-1455). […] To further assess these toxic effects, another in vivo toxicity study in non-tumor-bearing mice was performed. NSG mice were treated with mono-EGF-IT or bi-EGF-IT, without tumor cell injection.

[3] = system: human EGFR-positive HNSCC cell line HN6; assay: CellTiter-Glo Luminescent Cell Viability Assay, HN6; type: cell-based; conditions: HN-6, read-out: IC50 to HNSCC cell lines (Erlotinib)
Experimental: (§1) FIG. 9 presents the data from in vitro efficacy analysis of the human EGF fusion toxins against human EGFR-positive HNSCC cell lines using CellTiter-Glo® Luminescent Cell Viability Assay (Promega) Y-axis: inhibition rate of the cell viability by determining the number of viable cells based on the quantification of the ATP present. X-axis: plated fusion toxin concentration. Cycloheximide (1.25 mg/mL) was used as a positive control. The negative control contained cells without fusion toxin. Data were from three individual experiments for each HNSCC cell line. Error bars indicate SD.
(§2) Y-axis: inhibition rate of the cell viability by determining the number of viable cells based on the quantification of the ATP present. […] Cycloheximide (1.25 mg/mL) was used as a positive control. […]
(§3) In vitro efficacy analysis of the human EGF fusion toxins (mEGF-IT and bEGF-IT) to the human HNSCC tumor cell lines was performed using CellTiter-Glo® Luminescent Cell Viability Assay (Promega Corporation, Madison, Wis.) as described previously (Zheng et al. (2017), Mol. Oncol. 11, 584-594, which is hereby incorporated by reference in its entirety). This cell viability assay measures the luminescence produced because of ATP production from metabolically active cells. […] The luminescence signals were recorded using BioTek Synergy LX Multi-Mode Reader.
(§4) IC50 was determined using nonlinear regression (curve fit) of Prism. […]

[4] = system: human EGFR-positive HNSCC cell line UMSCC22B; assay: CellTiter-Glo Luminescent Cell Viability Assay, UMSCC22B; type: cell-based; conditions: read-out: IC50 to HNSCC cell lines (Erlotinib)
Experimental: as §1, §2, §3, §4

[5] = system: human EGFR-positive HNSCC cell line TU167; assay: CellTiter-Glo Luminescent Cell Viability Assay, TU167; type: cell-based; conditions: read-out: IC50 to HNSCC cell lines (Erlotinib)
Experimental: as §1, §2, §3, §4

[6] = system: human EGFR-positive HNSCC cell line Vu1365; assay: CellTiter-Glo Luminescent Cell Viability Assay, Vu1365; type: cell-based; conditions: read-out: IC50 to HNSCC cell lines (Erlotinib)
Experimental: as §1, §2, §3, §4

[7] = non-tumor-bearing NSG mice, 13 days after the first injection

Compound | Kd [1] | blocking of anti-human EGFR mAb binding to Cal27 (result in words) [2] | adverse effects observed in treated mice (NSG mice; mice of the efficacy studies) | general condition and skin (NSG mice; non-tumor-bearing NSG mice) | necropsy, gastrointestinal tract (NSG mice; [7]) | necropsy, liver (NSG mice; [7]) | IC50 [3] | IC50 [4] | IC50 [5] | IC50 [6]
Bi-EGF IT: DT390 joined by G4S to two human EGF domains linked by (G4S)3, C-terminal 6×His tag; SEQ ID NO: 10 | 5.05 nM | bound significantly stronger to Cal27 cells compared with mono-EGF-IT | these adverse effects were not observed | but not bi-EGF-IT, were again generally unhealthy and lethargic with skin rashes | normal appearance of the gastrointestinal tract | no significant abnormal findings | – | – | – | –
C#Cc1cccc(Nc2ncnc3cc(OCCOC)c(OCCOC)cc23)c1 [Erlotinib] | – | – | – | – | – | – | 940 nM | 1740 nM | 410 nM | 1540 nM
